From article PMC11477141, “Chemokine Receptor N-Terminus Charge Dictates Reliance on Post-Translational Modifications for Effective Ligand Capture and Following Boosting by Defense Peptides” (International Journal of Molecular Sciences, 2024)
Where no end group is shown, it is not given here.

Legend:
Assay type in all cases: cell-based, human
CCR5-1like = assay: BRET CAMYEL Gαi signaling via chimeric receptor M1-CCR5-1like; conditions: n = 3
From the text: To finally determine if the lack of acidic amino acids in the CCR5 N-terminus can explain the dependency of this receptor on O-glycosylation for effective ligand interaction, we constructed a CCR5 receptor chimera, where the most acidic N-terminal region of CCR1 was inserted into the CCR5 N-terminus, creating the chimeric receptor CCR5-1like (Figure 7).
Figure 7 Receptor N-termini representing CCR1, CCR5, and the chimeric CCR5-1like. The CCR1 N-terminus contains a lot of acidic amino acids (outlined in red) in the form of aspartic acid (D) and glutamic acid (E), whereas CCR5 only contains a few. The chimeric receptor CCR5-1like that contains part of the CCR1 receptor N-terminus (ETTTDYDE) resembles CCR1 with regard to acidic amino acid content and spacing, but they are not the same.
BRET measurements of Gαi signaling and β-arrestin recruitment: Cells were seeded in 6-well plates (500,000 cells/well) and transiently transfected the following day. For BRET measurements of Gαi signaling, cells were transfected with vectors encoding the human chemokine receptors as indicated (160 ng/well) and the CAMYEL sensor (cAMP sensor, YFP-Epac-RLuc) (840 ng/well) using Lipofectamine (6 µL/well). Briefly, DNA was dissolved in 125 µL OPTI-MEM and Lipofectamine was dissolved in 125 µL OPTI-MEM. The DNA and Lipofectamine solutions were combined into a transfection mixture. The transfection mixture was added dropwise to cells incubated in OPTI-MEM (1 mL/well). Transfections were terminated after 5 h by adding 1 mL of fresh culture medium on top of the OPTI-MEM. The following day the cells were loosened from the plates in PBS with 5 mM glucose and subsequently aliquoted in white 96-well iso plates (~25,000 cells/well). When using C21TP variants and defense peptides (hBD2 and histatin), these were added to a final concentration of 10 μM/well, while an equal amount of PBS was added to control cells. The bioluminescence substrate coelenterazine was added to a final conc. of 5 µM. After 10 min, varying ligand concentrations were added. For BRET measurements of Gαi signaling, forskolin was added 5 min after the addition of the ligand, to a final conc. of 5 µM. The plates were kept in the dark at all times. A Perkin Elmer Envision machine was used for measuring the emission signals at 530 and 480 nm. The BRET signal is determined as the ratio eYFP (530 nm)/Rluc (480 nm).
BRET principle with CAMYEL: For quantification of signaling initiated immediately downstream of receptor activation, we used the cAMP binding CAMYEL sensor to perform bioluminescence resonance energy transfer (BRET) based assays. In this assay we measure changes in intracellular cAMP levels in response to receptor activation. Activation of chemokine receptors lead to a decrease in cAMP through inhibition of adenylate cyclase (AC). In the current setup we initially add forskolin that stimulates AC directly to induce an increase in intracellular cAMP, and we then measure the ability of a ligand (chemokine) to counteract the forskolin-induced increase in cAMP. The cAMP sensor (CAMYEL cAMP sensor, YFP-Epac-RLuc) carries the donor Renilla luciferase (Rluc) and the acceptor YFP. Coelenterazine is a substrate for Rluc that will emit light at around 475 nm upon enzymatic cleavage catalyzed by Rluc. When Rluc and YFP are in close proximity, the energy from the emitted light from coelenterazine can be transferred to YFP, resulting in an excitation of YFP, leading to a BRET signal around 525 nm. […]

Y14Y15AA-CCR5 = assay: BRET CAMYEL Gαi signaling via Y14Y15AA-CCR5; conditions: CHO cells, n = 3
Procedure: (§1) BRET measurements of Gαi signaling and β-arrestin recruitment: Cells were seeded in 6-well plates (500,000 cells/well) and transiently transfected the following day. For BRET measurements of Gαi signaling, cells were transfected with vectors encoding the human chemokine receptors as indicated (160 ng/well) and the CAMYEL sensor (cAMP sensor, YFP-Epac-RLuc) (840 ng/well) using Lipofectamine (6 µL/well). Briefly, DNA was dissolved in 125 µL OPTI-MEM and Lipofectamine was dissolved in 125 µL OPTI-MEM. The DNA and Lipofectamine solutions were combined into a transfection mixture. The transfection mixture was added dropwise to cells incubated in OPTI-MEM (1 mL/well). Transfections were terminated after 5 h by adding 1 mL of fresh culture medium on top of the OPTI-MEM. The following day the cells were loosened from the plates in PBS with 5 mM glucose and subsequently aliquoted in white 96-well iso plates (~25,000 cells/well). […] The BRET signal is determined as the ratio eYFP (530 nm)/Rluc (480 nm).
(§2) BRET principle with CAMYEL: For quantification of signaling initiated immediately downstream of receptor activation, we used the cAMP binding CAMYEL sensor to perform bioluminescence resonance energy transfer (BRET) based assays. […] The BRET ratio is determined as the ratio between YFP/Rluc, and an increase in BRET ratio indicates a decrease in cAMP and thus increased chemokine receptor activation. […]

T16S17AA-CCR5 = assay: BRET CAMYEL Gαi signaling via T16S17AA-CCR5; conditions: CHO cells, n = 3
Procedure: as §1, §2

[1] = HEK293 WT, DeltaSia and sC cells, 10 µM peptide

Substance | boosting of CCL3 signaling via M1-CCR5-1like (CCR5-1like; [1]) | boosting of CCL8 signaling via M1-CCR5-1like (CCR5-1like; [1]) | boosting of CCL5 signaling via Y1415AA receptor variant (Y14Y15AA-CCR5; 10 µM peptide) | boosting of CCL5 signaling via T16S17AA receptor variant (T16S17AA-CCR5; 10 µM peptide) | Gαi signaling via M1-CCR5-1like in DeltaSia and sC cells compared to WT cells (CCR5-1like; HEK293 DeltaSia and sC) | Gαi signaling via Y14Y15AA-CCR5 compared to WT-CCR5 (Y14Y15AA-CCR5) | Gαi signaling via T16S17AA-CCR5 compared to WT-CCR5 (T16S17AA-CCR5)
RKDRGASKTGKKGKGSKGCKRTERSQTPKGP [C21TP^81-111] | absent | absent | maintained | maintained |  |  | 
CCL5: human chemokine from Peprotech, overall basic |  |  |  |  | persists in DeltaSia and sC to almost the same high level as observed in WT cells | completely abolished | improved
